From ChEMBL document CHEMBL3885881, “DrugMatrix”
Several values for one entry are separate records, joined by “and”; a condition that tells them apart may be missing. Equal values may be shown once.

Species: Rattus norvegicus
Assay: DrugMatrix - Regimen: Daily Repeat
Format: toxicity, organism-based, Sprague-Dawley
Set-up: regimen Daily Repeat, gender Male, age 6-8 weeks
Conditions: in vivo, ip, route intraperitoneal, vehicle 100 % SALINE; for ABSOLUTE BASOPHIL / ABSOLUTE EOSINOPHIL / ABSOLUTE LYMPHOCYTE / ABSOLUTE MONOCYTE / ABSOLUTE SEGMENTED NEUTROPHIL / BASOPHIL / EOSINOPHIL / ERYTHROCYTE COUNT / HEMATOCRIT / HEMOGLOBIN / LEUKOCYTE COUNT / LYMPHOCYTE / MEAN CORPUSCULAR HEMOGLOBIN / MEAN CORPUSCULAR HEMOGLOBIN CONCENTRATION / MEAN CORPUSCULAR VOLUME / MONOCYTE / NEUTROPHIL / PLATELET COUNT: tissue Blood
[1] = 0 mg/kg, 120 h, dose level Control, time 5 day
[2] = 0 mg/kg, 120 h, tissue Plasma, dose level Control, time 5 day
[3] = 0 mg/kg, […], dose level Control, time 14 day
[4] = 0 mg/kg, […], dose level Control, time 28 day
[5] = 0 mg/kg, […], tissue Plasma, dose level Control, time 14 day
[6] = 0 mg/kg, […], tissue Plasma, dose level Control, time 28 day
[7] = 2 mg/kg, 120 h, dose level High, time 5 day

## LEAD (II) ACETATE
[1]
  ABSOLUTE BASOPHIL: 32 cells/µL
  ABSOLUTE EOSINOPHIL: 110 cells/µL
  ABSOLUTE LYMPHOCYTE: 6630 cells/µL
  ABSOLUTE MONOCYTE: 140 cells/µL
  ABSOLUTE SEGMENTED NEUTROPHIL: 1170 cells/µL
  BASOPHIL: 0.38% and 0.35%
  EOSINOPHIL: 1.28% and 0.62%
  ERYTHROCYTE COUNT: 7.45 x10E6/uL and 7.26 x10E6/uL
  HEMATOCRIT: 45.74% and 47.97%
  HEMOGLOBIN: 14.72 G/DL and 15.38 G/DL
  LEUKOCYTE COUNT: 8.11 x10E3/uL and 8.68 x10E3/uL
  LYMPHOCYTE: 81.3% and 86.77%
  MEAN CORPUSCULAR HEMOGLOBIN: 19.76 pg and 21.18 pg
  MEAN CORPUSCULAR HEMOGLOBIN CONCENTRATION: 32.16 G/DL and 32.05 G/DL
  MEAN CORPUSCULAR VOLUME: 61.38 fL and 66.15 fL
  MONOCYTE: 1.76% and 1.57%
  NEUTROPHIL: 14.9% and 9.53%
  PLATELET COUNT: 1322.4 x10E3/uL and 1786 x10E3/uL
[2]
  ALANINE AMINOTRANSFERASE: 25.8 u/L and 20.5 u/L
  ALBUMIN: 3.64 G/DL and 4.35 G/DL
  ALKALINE PHOSPHATASE: 300 u/L
  ASPARTATE AMINOTRANSFERASE: 81.4 u/L and 86.75 u/L
  BLOOD UREA NITROGEN: 14.4 mg/dL and 17 mg/dL
  CARBON DIOXIDE: 29 mmol/L
  CHOLESTEROL: 69.2 mg/dL and 51.25 mg/dL
  CREATINE PHOSPHOKINASE: 303.2 u/L and 384.75 u/L
  CREATININE: 0.56 mg/dL and 0.47 mg/dL
  GLUCOSE: 125.4 mg/dL and 128.75 mg/dL
  LACTATE DEHYDROGENASE: 105.4 u/L and 145 u/L
  LIPASE: 22.4 u/L and 13.25 u/L
  PHOSPHORUS: 11.8 mg/dL
  POTASSIUM: 5.52 MEQ/L and 6.58 MEQ/L
  SODIUM: 147 MEQ/L and 151 MEQ/L
  TOTAL BILIRUBIN: 0.2 mg/dL and 0.33 mg/dL
  TOTAL PROTEIN: 6.1 G/DL and 6.53 G/DL
  URIC ACID: 1.06 mg/dL and 1.95 mg/dL
[3]
  ABSOLUTE BASOPHIL: 130 cells/µL
  ABSOLUTE EOSINOPHIL: 140 cells/µL
  ABSOLUTE LYMPHOCYTE: 13500 cells/µL
  ABSOLUTE MONOCYTE: 400 cells/µL
  ABSOLUTE SEGMENTED NEUTROPHIL: 2330 cells/µL
  HEMATOCRIT: 45.98%
  HEMOGLOBIN: 15.17 G/DL
  MEAN CORPUSCULAR VOLUME: 59.4 fL
  NEUTROPHIL: 14.14%
[4]
  ABSOLUTE BASOPHIL: 91 cells/µL
  ABSOLUTE EOSINOPHIL: 110 cells/µL
  ABSOLUTE LYMPHOCYTE: 9910 cells/µL
  ABSOLUTE MONOCYTE: 210 cells/µL
  ABSOLUTE SEGMENTED NEUTROPHIL: 1560 cells/µL
  BASOPHIL: 0.77%
  EOSINOPHIL: 0.92%
  ERYTHROCYTE COUNT: 8.21 x10E6/uL
  HEMATOCRIT: 47.53%
  HEMOGLOBIN: 15.65 G/DL
  LEUKOCYTE COUNT: 11.91 x10E3/uL
  LYMPHOCYTE: 83.34%
  MEAN CORPUSCULAR HEMOGLOBIN: 19.07 pg
  MEAN CORPUSCULAR HEMOGLOBIN CONCENTRATION: 32.93 G/DL
  MEAN CORPUSCULAR VOLUME: 57.9 fL
  MONOCYTE: 1.68%
  NEUTROPHIL: 12.97%
  PLATELET COUNT: 1323.8 x10E3/uL
[5]
  ALBUMIN: 3.66 G/DL
  CARBON DIOXIDE: 25 mmol/L
  CHLORIDE: 107 MEQ/L
  CREATINE PHOSPHOKINASE: 410.25 u/L
  SODIUM: 149.2 MEQ/L
  URIC ACID: 0.94 mg/dL
[6]
  ALANINE AMINOTRANSFERASE: 30 u/L
  ALBUMIN: 3.71 G/DL
  ALKALINE PHOSPHATASE: 186.8 u/L
  ASPARTATE AMINOTRANSFERASE: 78.2 u/L
  BLOOD UREA NITROGEN: 14.2 mg/dL
  CHOLESTEROL: 44.9 mg/dL
  CREATINE PHOSPHOKINASE: 334.3 u/L
  CREATININE: 0.6 mg/dL
  GLUCOSE: 147.2 mg/dL
  LACTATE DEHYDROGENASE: 123.1 u/L
  LIPASE: 9.6 u/L
  PHOSPHORUS: 10.01 mg/dL
  POTASSIUM: 6.57 MEQ/L
  SODIUM: 149.5 MEQ/L
  TOTAL BILIRUBIN: 0.21 mg/dL
  TOTAL PROTEIN: 6.66 G/DL
  URIC ACID: 1.26 mg/dL
[7]
  ABSOLUTE BASOPHIL: 120 cells/µL
  ABSOLUTE EOSINOPHIL: 150 cells/µL
  ABSOLUTE LYMPHOCYTE: 10100 cells/µL
  ABSOLUTE MONOCYTE: 250 cells/µL
  ABSOLUTE SEGMENTED NEUTROPHIL: 2470 cells/µL
